According to patent US11458189B2, “Cytoprotective drugs” (BALMES TRANSPLANTATION, priority 2017, dated 2022):
Starred links: 1 amine or outer side, 2 acyl side, 3 side chain; linkers in the order of their positions; H or OH if unused. Positions of bridges follow the written chain, without caps; N, C: chain ends. Non-standard residues stand in square brackets, D forms with d. Residues, ends and D or L forms follow the SMILES beside them. *: point of attachment. hTyr(3S-OH,4S-OH,3'-OSO3H) = N[C@H](C(=O)O)[C@H](O)[C@@H](O)c1ccc(O)c(OS(=O)(=O)O)c1; Orn(4R-OH,5R-OH) = O=C([C@H](C[C@@H](O)[C@@H](O)N[*:3])N[*:1])[*:2]; Pro(3S-OH,4S-Me) = C[C@H]1CN[C@H](C(=O)O)[C@H]1O; X1 = CCCCCOc1ccc(-c2cc(-c3ccc(C(=O)*)cc3)no2)cc1; Gln(3R-OH) = NC(=O)C[C@@H](O)[C@H](N)C(=O)O; Hyp = O=C(O)[C@@H]1C[C@@H](O)CN1

Tested on: Human Cardiac Microvascular Endothelial Cells (HCMEC)
Experiment: Oxygen and glucose deprivation followed by replenishment, cell survival (calcein AM), HCMEC
Type: cell-based
Procedure: Anidulafungin and micafungin were tested on Human Renal Glomerular Endothelial Cells (HRGEC, Innoprot P10665), on Human Renal Proximal Tubular Epithelial Cells (HRPTEpiC, Innoprot P10662), on Human Astrocytes (HA, caltag SC-1800), on Human Cardiac Microvascular Endothelial Cells (HCMEC, Caltag SC-6000), on Human Hepatic Sinusoidal Endothelial Cells (HHSEC, Caltag SC-5000), on Rat Primary Kidney Glomerular Endothelial cells (Cellbiologics, RN-6014G) and on Bovine Brain Microvascular Endothelial Cells (BBMEC, Caltag SC-B100).
In a first phase, these isolated, purified and cryopreserved cells are thawed and multiplied according to the supplier's recommendations in T75 or T175 flasks pre-coated with 2 μg of fibronectin/[…] (CORNING) for HRGEC, HCMEC, HHSEC and BBMEC, or 2 μg poly-L-lysin/cm^2 (Caltag SC-0403) for HRPTEpiC and HA, or 15 mL/flask 175 cm^2 gelatin-based solution (Cellbiologics) in the presence of endothelial cell supplemented growth medium ECM (P60104, INNOPROT, Caltag, SC-1001) for HRGEC, HCMEC, HHSEC, RPKGEC or BBMEC, or astrocyte cell supplemented growth medium AM (Caltag SC-1801) for HA or epithelial cell supplemented growth medium EpiCM (P60106, INNOPROT) for HRPTEpiC, at 37° C. under 5% CO2 and saturated humidity until their confluency. They are then harvested by trypsinization according to the method described by the supplier for exactly 5 minutes and then reseeded in new flasks a maximum of three times.
To carry out the oxygen and glucose deprivation test followed by their replenishment, the cells will be seeded in 96-well black plates with transparent flat bottom (GREINER). Once a sufficient number of cells has been obtained to allow seeding of 2000 to 15000 cells per well of 96-well plates depending on the cell type, the cells are seeded in these 96-well plates previously coated with an extracellular matrix as listed above for the flasks. The cells are cultured for 5 to 8 days according to the cell type, in the presence of the same growth medium as in the flask as described above except for HRGEC and HRPTEpiC for which DMEM (DUTSCHER) with 1 g/L of supplemented glucose is used, at 37° C. under 5% CO2 and saturated humidity to obtain confluency.
On the first day of oxygen and glucose deprivation, (5th, 6th, 7th or 8th day of culture), the culture conditions are drastically changed. The medium of all plates is removed and replaced by DMEM (DUTSCHER) medium without glucose and supplemented only with 1% penicillin-streptomycin (DUTSCHER). Anidulafungin or micafungin dissolved in dimethyl sulfoxide (DMSO) is then added to each well at the desired concentration, resulting in a maximum of 1% DMSO, and the plates are placed under hypoxia at <1% 02 and 5% CO2 at 37° C. for 24 hours of culture. Each compound was tested in a concentration range.
After 24 hours, the growth medium is changed and replaced by a richer medium, DMEM (DUTSCHER) at 1 g/L glucose and 2% FBS (INNOPROT) and 1% penicillin-streptomycin (DUTSCHER). These media will have been pre-equilibrated at 37° C. in advance. The cells are then returned to culture at 37° C. under 20% 02 and 5% CO2 for 22h.
After 22 hours of reoxygenation, the potential protective effect of anidulafungin or micafungin is measured by a cell viability test using calcein AM (CORNING), which is a dye substrate. The calcein AM can easily cross the cell membrane of the viable cells. The AM ester groups mask the part of the molecule that chelates calcium. Once inside the cells, the (non-fluorescent) calcein AM is hydrolyzed to (fluorescent) calcein by endogenous esterases. The resulting calcein molecule binds to calcium inside the cell and remains trapped inside the cell. These molecules emit strong green fluorescence when subjected to […] of a particular wavelength (495 nm). Since dead cells lack esterase activity, only living cells are labelled.
This cell viability test is performed in two steps. […]

Structure (SMILES): CCCCCOc1ccc(-c2cc(-c3ccc(C(=O)N[C@H]4C[C@@H](O)[C@@H](O)NC(=O)[C@@H]5[C@@H](O)[C@@H](C)CN5C(=O)[C@H]([C@H](O)CC(N)=O)NC(=O)[C@H]([C@H](O)[C@@H](O)c5ccc(O)c(OS(=O)(=O)O)c5)NC(=O)[C@@H]5C[C@@H](O)CN5C(=O)[C@H]([C@@H](C)O)NC4=O)cc3)no2)cc1 [Micafungin, {5-[(1S,2S)-2-[(3S,6S,9S,11R,15S,18S,20R,21R,24S,25S,26S)-3-[(1R)-2-carbamoyl-1-hydroxyethyl]-11,20,21,25-tetrahydroxy-15-[(1R)-1-hydroxyethyl]-26-methyl-2,5,8,14,17,23-hexaoxo-18-[(4-{5-[4-(pentyloxy)phenyl]-1,2-oxazol-3-yl}benzene)amido]-1,4,7,13,16,22-hexaazatricyclo[22.3.0.0]heptacosan-6-yl]-1,2-dihydroxyethyl]-2-hydroxyphenyl}oxidanesulfonic acid] (X1-[Orn(4R-OH,5R-OH)]T[Hyp][hTyr(3S-OH,4S-OH,3'-OSO3H)][Gln(3R-OH)][Pro(3S-OH,4S-Me)]; lactam 1-C)
- Globalfluo assay 1 ([Micafungin] log μM 0): 4455401 arbitrary units
- Globalfluo assay 2 ([Micafungin] log μM 0): 4660836 arbitrary units
- Globalfluo assay 3 ([Micafungin] log μM 0): 4639734 arbitrary units
- Mean globalfluo ([Micafungin] log μM 0): 4585324 arbitrary units
- Survival rate (%) ([Micafungin] log μM 0): −3%
- Globalfluo assay 1 ([Micafungin] log μM 0.4771213): 5103911 arbitrary units
- Globalfluo assay 2 ([Micafungin] log μM 0.4771213): 5348145 arbitrary units
- Globalfluo assay 3 ([Micafungin] log μM 0.4771213): 4886218 arbitrary units
- Mean globalfluo ([Micafungin] log μM 0.4771213): 5112758 arbitrary units
- Survival rate (%) ([Micafungin] log μM 0.4771213): 0%
- Globalfluo assay 1 ([Micafungin] log μM 0.7781513): 5452718 arbitrary units
- Globalfluo assay 2 ([Micafungin] log μM 0.7781513): 4992821 arbitrary units
- Globalfluo assay 3 ([Micafungin] log μM 0.7781513): 6254079 arbitrary units
- Mean globalfluo ([Micafungin] log μM 0.7781513): 5566539 arbitrary units
- Survival rate (%) ([Micafungin] log μM 0.7781513): 3%
- Globalfluo assay 1 ([Micafungin] log μM 0.90309): 5299685 arbitrary units
- Globalfluo assay 2 ([Micafungin] log μM 0.90309): 5787047 arbitrary units
- Globalfluo assay 3 ([Micafungin] log μM 0.90309): 5397439 arbitrary units
- Mean globalfluo ([Micafungin] log μM 0.90309): 5494724 arbitrary units
- Survival rate (%) ([Micafungin] log μM 0.90309): 3%
- Globalfluo assay 1 ([Micafungin] log μM 1): 5522064 arbitrary units
- Globalfluo assay 2 ([Micafungin] log μM 1): 5305822 arbitrary units
- Globalfluo assay 3 ([Micafungin] log μM 1): 6090892 arbitrary units
- Mean globalfluo ([Micafungin] log μM 1): 5639593 arbitrary units
- Survival rate (%) ([Micafungin] log μM 1): 3%
- Globalfluo assay 1 ([Micafungin] log μM 1.079181): 5365305 arbitrary units
- Globalfluo assay 2 ([Micafungin] log μM 1.079181): 5914359 arbitrary units
- Globalfluo assay 3 ([Micafungin] log μM 1.079181): 4948085 arbitrary units
- Mean globalfluo ([Micafungin] log μM 1.079181): 5409250 arbitrary units
- Survival rate (%) ([Micafungin] log μM 1.079181): 2%
- Globalfluo assay 1 ([Micafungin] log μM 1.176091): 5886475 arbitrary units
- Globalfluo assay 2 ([Micafungin] log μM 1.176091): 5800515 arbitrary units
- Globalfluo assay 3 ([Micafungin] log μM 1.176091): 6203727 arbitrary units
- Mean globalfluo ([Micafungin] log μM 1.176091): 5963572 arbitrary units
- Survival rate (%) ([Micafungin] log μM 1.176091): 5%
- Globalfluo assay 1 ([Micafungin] log μM 1.30103): 6537106 arbitrary units
- Globalfluo assay 2 ([Micafungin] log μM 1.30103): 5661218 arbitrary units
- Globalfluo assay 3 ([Micafungin] log μM 1.30103): 6414894 arbitrary units
- Mean globalfluo ([Micafungin] log μM 1.30103): 6204406 arbitrary units
- Survival rate (%) ([Micafungin] log μM 1.30103): 7%
- Globalfluo assay 1 ([Micafungin] log μM 1.477121): 5692141 arbitrary units
- Globalfluo assay 2 ([Micafungin] log μM 1.477121): 6434487 arbitrary units
- Globalfluo assay 3 ([Micafungin] log μM 1.477121): 7272557 arbitrary units
- Mean globalfluo ([Micafungin] log μM 1.477121): 6466395 arbitrary units
- Survival rate (%) ([Micafungin] log μM 1.477121): 8%
- Globalfluo assay 1 ([Micafungin] log μM −0.5228788): 4445501 arbitrary units
- Globalfluo assay 2 ([Micafungin] log μM −0.5228788): 5528681 arbitrary units
- Globalfluo assay 3 ([Micafungin] log μM −0.5228788): 4443191 arbitrary units
- Mean globalfluo ([Micafungin] log μM −0.5228788): 4805791 arbitrary units
- Survival rate (%) ([Micafungin] log μM −0.5228788): −1%
- Globalfluo assay 1 ([Micafungin] log μM −1): 4527783 arbitrary units
- Globalfluo assay 2 ([Micafungin] log μM −1): 4062591 arbitrary units
- Globalfluo assay 3 ([Micafungin] log μM −1): 5413646 arbitrary units
- Mean globalfluo ([Micafungin] log μM −1): 4668007 arbitrary units
- Survival rate (%) ([Micafungin] log μM −1): −2%
- Globalfluo assay 1 ([Micafungin] log μM −2): 4648220 arbitrary units
- Globalfluo assay 2 ([Micafungin] log μM −2): 3959524 arbitrary units
- Globalfluo assay 3 ([Micafungin] log μM −2): 4368024 arbitrary units
- Mean globalfluo ([Micafungin] log μM −2): 4325256 arbitrary units
- Survival rate (%) ([Micafungin] log μM −2): −4%
